PMC5218480 (PLoS ONE, 2017)

Tested on: MV-4-11 cells
Test: Gene expression microarray analysis (Affymetrix PrimeView) and GSEA
Type: cell-based, human
Design: RFU PODN (11730768_x_at) / Fold change /veh PODN (11730768_x_at) / RFU LINC00158 (11744669_a_at) / Fold change /veh LINC00158 (11744669_a_at) / RFU DUSP10 (11751237_a_at) / Fold change /veh DUSP10 (11751237_a_at) / RFU ID3 (11757404_x_at) / Fold change /veh ID3 (11757404_x_at) / RFU PLEKHG5 (11737974_s_at) / Fold change /veh PLEKHG5 (11737974_s_at) / RFU LRRC4B (11730491_at) / Fold change /veh LRRC4B (11730491_at) / RFU GIMAP4 (11747438_a_at) / Fold change /veh GIMAP4 (11747438_a_at) / RFU KRT8 (11758183_x_at) / Fold change /veh KRT8 (11758183_x_at) / RFU CNN1 (11734310_a_at) / Fold change /veh CNN1 (11734310_a_at) / RFU VPS37D (11726825_at) / Fold change /veh VPS37D (11726825_at) / RFU C10orf10 (11716522_x_at) / Fold change /veh C10orf10 (11716522_x_at) / RFU KIR2DL2 /// KIR2DL4 /// KIR2DL5A /// KIR2DL5B /// KIR2DS1 /// KIR2DS2 /// KIR2DS3 /// KIR2DS4 /// KIR3DL3 /// KIR3DL3 /// KIR3DS1 (11738374_at) / Fold change /veh KIR2DL2 /// KIR2DL4 /// KIR2DL5A /// KIR2DL5B /// KIR2DS1 /// KIR2DS2 /// KIR2DS3 /// KIR2DS4 /// KIR3DL3 /// KIR3DL3 /// KIR3DS1 (11738374_at) / RFU C1QL1 (11718748_at) / Fold change /veh C1QL1 (11718748_at) / RFU TMPRSS4 (11747572_a_at) / Fold change /veh TMPRSS4 (11747572_a_at) / RFU HAMP (11756126_x_at) / Fold change /veh HAMP (11756126_x_at) / RFU RNFT2 (11725882_a_at) / Fold change /veh RNFT2 (11725882_a_at) / RFU NR4A2 (11747474_a_at) / Fold change /veh NR4A2 (11747474_a_at) / RFU ABCC12 (11746883_a_at) / Fold change /veh ABCC12 (11746883_a_at) / RFU TMEM136 (11760407_x_at) / Fold change /veh TMEM136 (11760407_x_at) / RFU CLDN22 /// WWC2 (11732394_at) / Fold change /veh CLDN22 /// WWC2 (11732394_at) / RFU HLA-DPB1 (11760878_x_at) / Fold change /veh HLA-DPB1 (11760878_x_at) / RFU SPINT1 (11716480_a_at) / Fold change /veh SPINT1 (11716480_a_at) / RFU GAP43 (11754022_s_at) / Fold change /veh GAP43 (11754022_s_at) / RFU A4GNT (11735810_at) / Fold change /veh A4GNT (11735810_at) / RFU PRB3 (11715151_x_at) / Fold change /veh PRB3 (11715151_x_at) / RFU TUBB4B (11761932_at) / Fold change /veh TUBB4B (11761932_at) / RFU CAPN14 (11732068_a_at) / Fold change /veh CAPN14 (11732068_a_at) / RFU TMCC2 (11721928_a_at) / Fold change /veh TMCC2 (11721928_a_at) / RFU IRGQ (11745062_a_at) / Fold change /veh IRGQ (11745062_a_at) / RFU FAM174B (11720279_a_at) / Fold change /veh FAM174B (11720279_a_at) / RFU TMPRSS4 (11748680_a_at) / Fold change /veh TMPRSS4 (11748680_a_at) / RFU FAM212B (11763350_a_at) / Fold change /veh FAM212B (11763350_a_at) / RFU PLEKHG5 (11743358_a_at) / Fold change /veh PLEKHG5 (11743358_a_at) / RFU ZSCAN30 (11745921_a_at) / Fold change /veh ZSCAN30 (11745921_a_at) / RFU CMKLR1 (11741424_a_at) / Fold change /veh CMKLR1 (11741424_a_at) / RFU LOC101060620 /// MAPK8IP1 (11723275_at) / Fold change /veh LOC101060620 /// MAPK8IP1 (11723275_at) / RFU SPTSSB (11747773_x_at) / Fold change /veh SPTSSB (11747773_x_at) / RFU PRSS12 (11739890_at) / Fold change /veh PRSS12 (11739890_at) / RFU BIN1 (11741810_x_at) / Fold change /veh BIN1 (11741810_x_at) / RFU WNT11 (11732464_a_at) / Fold change /veh WNT11 (11732464_a_at) / RFU C10orf10 (11716521_a_at) / Fold change /veh C10orf10 (11716521_a_at) / RFU C5orf56 (11738089_at) / Fold change /veh C5orf56 (11738089_at) / RFU CYB561 (11721691_x_at) / Fold change /veh CYB561 (11721691_x_at) / RFU ANKRD19P (11752326_a_at) / Fold change /veh ANKRD19P (11752326_a_at) / RFU OR2T12 /// OR2T33 /// OR2T8 (11738714_s_at) / Fold change /veh OR2T12 /// OR2T33 /// OR2T8 (11738714_s_at) / RFU VCAN (11748164_a_at) / Fold change /veh VCAN (11748164_a_at) / RFU JSRP1 (11732532_at) / Fold change /veh JSRP1 (11732532_at) / RFU KRTAP10-11 (11738290_x_at) / Fold change /veh KRTAP10-11 (11738290_x_at) / RFU MYO3A (11730013_a_at) / Fold change /veh MYO3A (11730013_a_at) / RFU EBF3 (11725865_a_at) / Fold change /veh EBF3 (11725865_a_at) / RFU CAMK2N1 (11719241_x_at) / Fold change /veh CAMK2N1 (11719241_x_at) / RFU C5orf56 (11738088_a_at) / Fold change /veh C5orf56 (11738088_a_at) / RFU OLFML3 (11715873_a_at) / Fold change /veh OLFML3 (11715873_a_at) / RFU LOC100653217 /// NTM (11731650_a_at) / Fold change /veh LOC100653217 /// NTM (11731650_a_at) / RFU MAPK11 (11762145_a_at) / Fold change /veh MAPK11 (11762145_a_at) / RFU FIZ1 (11724087_x_at) / Fold change /veh FIZ1 (11724087_x_at) / RFU OASL (11726364_x_at) / Fold change /veh OASL (11726364_x_at) / RFU SOX15 (11748057_x_at) / Fold change /veh SOX15 (11748057_x_at) / RFU CD79A (11719716_a_at) / Fold change /veh CD79A (11719716_a_at) / RFU HIST1H1D (11736915_at) / Fold change /veh HIST1H1D (11736915_at) / RFU CASKIN2 (11723855_a_at) / Fold change /veh CASKIN2 (11723855_a_at) / RFU LOC730098 (11760151_x_at) / Fold change /veh LOC730098 (11760151_x_at) / RFU OR4N2 (11742367_at) / Fold change /veh OR4N2 (11742367_at) / RFU PRRT2 (11749266_a_at) / Fold change /veh PRRT2 (11749266_a_at) / RFU SNX32 (11753110_a_at) / Fold change /veh SNX32 (11753110_a_at) / RFU CDHR5 (11726645_a_at) / Fold change /veh CDHR5 (11726645_a_at) / RFU RCAN1 (11760418_a_at) / Fold change /veh RCAN1 (11760418_a_at) / RFU FAM167A (11723789_a_at) / Fold change /veh FAM167A (11723789_a_at) / RFU FAM26E (11764081_at) / Fold change /veh FAM26E (11764081_at) / RFU ISYNA1 (11749810_s_at) / Fold change /veh ISYNA1 (11749810_s_at) / RFU ACY1 (11761880_at) / Fold change /veh ACY1 (11761880_at) / RFU 11764098_at / Fold change /veh 11764098_at / RFU SAMD14 (11745864_x_at) / Fold change /veh SAMD14 (11745864_x_at) / RFU NPB (11741838_a_at) / Fold change /veh NPB (11741838_a_at) / RFU TMPRSS6 (11731388_a_at) / Fold change /veh TMPRSS6 (11731388_a_at) / RFU KRTAP10-2 (11738614_at) / Fold change /veh KRTAP10-2 (11738614_at) / RFU ARHGAP8 /// PRR5-ARHGAP8 (11727945_x_at) / Fold change /veh ARHGAP8 /// PRR5-ARHGAP8 (11727945_x_at) / RFU KRTAP5-7 /// NADSYN1 (11734609_at) / Fold change /veh KRTAP5-7 /// NADSYN1 (11734609_at) / RFU RASL12 (11751679_a_at) / Fold change /veh RASL12 (11751679_a_at) / RFU CDKN2B (11736163_a_at) / Fold change /veh CDKN2B (11736163_a_at) / RFU PRF1 (11729649_at) / Fold change /veh PRF1 (11729649_at) / RFU, ZNF638 /// ZNF638-IT1 / Fold change vs veh, ZNF638 /// ZNF638-IT1 / RFU, PANK3 / Fold change vs veh, PANK3 / RFU, SH3YL1 / Fold change vs veh, SH3YL1 / RFU, ZEB2 / Fold change vs veh, ZEB2 / RFU, NRIP1 / Fold change vs veh, NRIP1 / RFU, PTTG1IP / Fold change vs veh, PTTG1IP / RFU, CAPN2 / Fold change vs veh, CAPN2 / RFU, MED14 / Fold change vs veh, MED14 / RFU, SNORA58 / Fold change vs veh, SNORA58 / RFU, C1orf63 / Fold change vs veh, C1orf63 / RFU, LRRFIP1 / Fold change vs veh, LRRFIP1 / RFU, NDUFAF7 / Fold change vs veh, NDUFAF7 / RFU, SLC12A2 / Fold change vs veh, SLC12A2 / RFU, IBTK / Fold change vs veh, IBTK / RFU, ESF1 / Fold change vs veh, ESF1 / Fold change vs veh, TMEM50B / RFU, TAOK1 / Fold change vs veh, TAOK1 / RFU, ACBD3 / Fold change vs veh, ACBD3 / RFU, TMA16 / Fold change vs veh, TMA16 / RFU, RWDD3 / Fold change vs veh, RWDD3 / RFU, BCAT1 / Fold change vs veh, BCAT1 / RFU, EDEM3 / Fold change vs veh, EDEM3 / RFU, TMEM33 / Fold change vs veh, TMEM33 / RFU, WDR75 / Fold change vs veh, WDR75 / RFU, AHCTF1 / Fold change vs veh, AHCTF1 / RFU, TFRC / Fold change vs veh, TFRC / RFU, ZDHHC17 / Fold change vs veh, ZDHHC17 / RFU, NOM1 / Fold change vs veh, NOM1 / RFU, ARL8B / Fold change vs veh, ARL8B / RFU, ZBTB11 / Fold change vs veh, ZBTB11 / RFU, TAMM41 / Fold change vs veh, TAMM41 / RFU, KIAA1704 /// LOC100996395 / Fold change vs veh, KIAA1704 /// LOC100996395 / RFU, ING1 / Fold change vs veh, ING1 / RFU, TRMT61B / Fold change vs veh, TRMT61B / RFU, FUBP3 / Fold change vs veh, FUBP3 / RFU, TP53 / Fold change vs veh, TP53 / RFU, TNKS2 / Fold change vs veh, TNKS2 / RFU, ZFP14 / Fold change vs veh, ZFP14 / RFU, ACTR2 / Fold change vs veh, ACTR2 / RFU, PPP3R1 / Fold change vs veh, PPP3R1 / RFU, PIK3R1 / Fold change vs veh, PIK3R1 / RFU, HNRNPA1 / Fold change vs veh, HNRNPA1 / RFU, RNF170 / Fold change vs veh, RNF170 / RFU, ZNF28 / Fold change vs veh, ZNF28 / RFU, RNGTT / Fold change vs veh, RNGTT / RFU, OGT / Fold change vs veh, OGT / RFU, BRD1 / Fold change vs veh, BRD1 / RFU, MARS / Fold change vs veh, MARS / RFU, ZNF655 / Fold change vs veh, ZNF655 / RFU, FAHD1 / Fold change vs veh, FAHD1 / RFU, BDP1 / Fold change vs veh, BDP1 / RFU, LRRCC1 / Fold change vs veh, LRRCC1 / RFU, ARID1A / Fold change vs veh, ARID1A / RFU, ZNF146 / Fold change vs veh, ZNF146 / RFU, ZNF330 / Fold change vs veh, ZNF330 / RFU, GPN3 / Fold change vs veh, GPN3 / RFU, C9orf123 / Fold change vs veh, C9orf123 / RFU, N4BP2L2 / Fold change vs veh, N4BP2L2 / RFU, ARFIP1 / Fold change vs veh, ARFIP1 / RFU, FAM179B / Fold change vs veh, FAM179B / RFU, BCL10 / Fold change vs veh, BCL10 / RFU, UHRF1BP1L / Fold change vs veh, UHRF1BP1L / RFU, BET1 / Fold change vs veh, BET1 / RFU, CNOT2 / Fold change vs veh, CNOT2 / RFU, ZNF268 / Fold change vs veh, ZNF268 / Fold change vs veh, ZNF507 / RFU, DGCR2 / Fold change vs veh, DGCR2 / RFU, WDSUB1 / Fold change vs veh, WDSUB1 / Fold change vs veh, HSP90B1 /// MIR3652 / RFU, ADSS / Fold change vs veh, ADSS / RFU, GK / Fold change vs veh, GK / RFU, ZNF148 / Fold change vs veh, ZNF148 / RFU, TAF9 / Fold change vs veh, TAF9 / RFU, SLC1A5 / Fold change vs veh, SLC1A5 / RFU, SLMO2 / Fold change vs veh, SLMO2 / RFU, ABCC4 / Fold change vs veh, ABCC4 / RFU, LOC101060439 /// RAP1B / Fold change vs veh, LOC101060439 /// RAP1B / RFU, RFX7 / Fold change vs veh, RFX7 / RFU, GTPBP10 / Fold change vs veh, GTPBP10 / RFU, CNEP1R1 / Fold change vs veh, CNEP1R1 / RFU, BIVM-ERCC5 /// ERCC5 / Fold change vs veh, BIVM-ERCC5 /// ERCC5 / RFU, ILF3 / Fold change vs veh, ILF3 / RFU 11762660_at / Fold change /veh 11762660_at / RFU VCAN (11757783_s_at) / Fold change /veh VCAN (11757783_s_at) / RFU DDX43 (11728927_at) / Fold change /veh DDX43 (11728927_at) / RFU KRT8 (11758188_x_at) / Fold change /veh KRT8 (11758188_x_at) / RFU NKD1 (11759106_at) / Fold change /veh NKD1 (11759106_at) / RFU SRD5A1 (11742802_a_at) / Fold change /veh SRD5A1 (11742802_a_at) / RFU TPSAB1 /// TPSB2 (11721975_s_at) / Fold change /veh TPSAB1 /// TPSB2 (11721975_s_at) / RFU GSTM3 (11746129_a_at) / Fold change /veh GSTM3 (11746129_a_at) / RFU IL23R (11737362_x_at) / Fold change /veh IL23R (11737362_x_at) / RFU TMEM51 (11727254_a_at) / Fold change /veh TMEM51 (11727254_a_at) / RFU PIWIL2 (11732686_x_at) / Fold change /veh PIWIL2 (11732686_x_at) / RFU ORM1 (11744905_x_at) / Fold change /veh ORM1 (11744905_x_at) / RFU CCDC152 (11743942_at) / Fold change /veh CCDC152 (11743942_at) / RFU ECM1 (11717891_a_at) / Fold change /veh ECM1 (11717891_a_at) / RFU IL23R (11748794_a_at) / Fold change /veh IL23R (11748794_a_at) / RFU TNFAIP8L3 (11732012_x_at) / Fold change /veh TNFAIP8L3 (11732012_x_at) / RFU MBOAT4 (11741988_at) / Fold change /veh MBOAT4 (11741988_at) / RFU 11764193_at / Fold change /veh 11764193_at / RFU TMEM53 (11763286_at) / Fold change /veh TMEM53 (11763286_at) / RFU MAGEB2 (11727129_at) / Fold change /veh MAGEB2 (11727129_at) / RFU TMEM200A (11744735_a_at) / Fold change /veh TMEM200A (11744735_a_at) / RFU CCDC152 (11751479_a_at) / Fold change /veh CCDC152 (11751479_a_at) / RFU FAM211A (11726209_a_at) / Fold change /veh FAM211A (11726209_a_at) / RFU RGS16 (11746705_a_at) / Fold change /veh RGS16 (11746705_a_at) / RFU VCAN (11755009_s_at) / Fold change /veh VCAN (11755009_s_at) / RFU RHOB (11743442_s_at) / Fold change /veh RHOB (11743442_s_at) / RFU RGS16 (11720943_a_at) / Fold change /veh RGS16 (11720943_a_at) / RFU RGS16 (11720944_at) / Fold change /veh RGS16 (11720944_at) / RFU, VPS4B / Fold change vs veh, VPS4B / RFU, CREB1 / Fold change vs veh, CREB1 / RFU, DNAJC13 / Fold change vs veh, DNAJC13 / RFU, GNAQ / Fold change vs veh, GNAQ / RFU, CDK5R1 / Fold change vs veh, CDK5R1 / RFU, ZRANB3 / Fold change vs veh, ZRANB3 / RFU, CUL4A / Fold change vs veh, CUL4A / RFU, CCNY / Fold change vs veh, CCNY / RFU, UFL1 / Fold change vs veh, UFL1 / RFU, COG3 / Fold change vs veh, COG3 / RFU, DIAPH2 / Fold change vs veh, DIAPH2 / RFU, SKA2 / Fold change vs veh, SKA2 / RFU, AFF3 / Fold change vs veh, AFF3 / RFU, LMF1 / Fold change vs veh, LMF1 / RFU, IPO11 / Fold change vs veh, IPO11 / RFU, DFFB / Fold change vs veh, DFFB / RFU, FOXP1 / Fold change vs veh, FOXP1 / RFU, CARD8 / Fold change vs veh, CARD8 / RFU, STRN3 / Fold change vs veh, STRN3 / RFU, ADK / Fold change vs veh, ADK / RFU, RASSF2 / Fold change vs veh, RASSF2 / RFU, WIPF1 / Fold change vs veh, WIPF1 / RFU, LARP1B / Fold change vs veh, LARP1B / RFU, RASA1 / Fold change vs veh, RASA1 / RFU, RB1 / Fold change vs veh, RB1 / RFU, PPFIA1 / Fold change vs veh, PPFIA1 / RFU, MAT2A / Fold change vs veh, MAT2A / RFU, CCT5 / Fold change vs veh, CCT5 / RFU, WDR92 / Fold change vs veh, WDR92 / RFU, CUX1 / Fold change vs veh, CUX1 / RFU, TTC7A / Fold change vs veh, TTC7A / RFU, TMEM135 / Fold change vs veh, TMEM135 / RFU, DEPTOR / Fold change vs veh, DEPTOR / RFU, CPM / Fold change vs veh, CPM / RFU, DNAJB6 / Fold change vs veh, DNAJB6 / RFU, CACNA2D3 / Fold change vs veh, CACNA2D3 / RFU, DTX4 / Fold change vs veh, DTX4 / RFU, TFCP2 / Fold change vs veh, TFCP2 / RFU, GMCL1 /// GMCL1P1 / Fold change vs veh, GMCL1 /// GMCL1P1 / RFU, AEBP2 / Fold change vs veh, AEBP2 / RFU, SNHG1 /// SNORD22 /// SNORD25 /// SNORD26 /// SNORD27 /// SNORD28 /// SNORD29 /// SNORD31 / Fold change vs veh, SNHG1 /// SNORD22 /// SNORD25 /// SNORD26 /// SNORD27 /// SNORD28 /// SNORD29 /// SNORD31 / Fold change (Aza/veh), C12orf56 (ProbeSet 11735607_a_at) / Fold change (ACY-1035/veh), C12orf56 (ProbeSet 11735607_a_at) / Fold change (Aza/veh), FGFR1OP (ProbeSet 11751329_s_at) / Fold change (ACY-1035/veh), FGFR1OP (ProbeSet 11751329_s_at) / Fold change (Aza/veh), VPS36 (ProbeSet 11739960_a_at) / Fold change (ACY-1035/veh), VPS36 (ProbeSet 11739960_a_at) / RFU SYPL1 (11715823_x_at) / Fold change /veh SYPL1 (11715823_x_at) / RFU IGFBP7 (11715501_s_at) / Fold change /veh IGFBP7 (11715501_s_at) / RFU REEP3 (11722064_at) / Fold change /veh REEP3 (11722064_at) / RFU IGLL1 (11728026_x_at) / Fold change /veh IGLL1 (11728026_x_at): dose or concentration left out as unconfirmed
Conditions: MV-4-11 cells, 48 hours

In the case of `Nc1ncn([C@@H]2O[C@H](CO)[C@@H](O)[C@H]2O)c(=O)n1` [azacitidine], the “RFU RGS16 (11720944_at)” value is reported as 63.78 RFU.
